Source: paper PMC6667604, “Mechanism of action of antimicrobial peptide P5 truncations against Pseudomonas aeruginosa and Staphylococcus aureus” (AMB Express, 2019)
≈ marks a conversion by molar mass, not a printed value. Read-outs that look alike come from different tables or passages of the source. Peptide text beside a SMILES is read from it.

Tests used:
P. aeruginosa ATCC 27853 [1] = assay type: cell-based, Pseudomonas aeruginosa; conditions: ATCC 27853, 18 h
Protocol: (§1) We detected the antimicrobial activity of peptides against Gram-negative bacteria (P. aeruginosa ATCC 27853 and A. baumannii KCTC 2508) and Gram-positive bacteria (S. aureus ATCC 25923 and B. subtilis KCTC 2217). The minimum inhibitory concentrations (MICs) of the parental and truncated peptides were determined using the microbroth dilution method, as previously described (Jorgensen [1993]). The bacteria were incubated overnight with shaking at 37 °C. The bacteria were diluted to 2 × 10^5 colony forming units (CFU)/mL in Mueller–Hinton broth (MHB) media. The peptides were serially diluted in 10 mM sodium phosphate buffer and then 50 µL of the bacteria and 50 µL of the peptide solutions were mixed and incubated for 18 h at 37 °C. The MICs were measured as the absorbance at 600 nm using a Versa Max microplate reader (Molecular Devices, Sunnyvale, CA, USA). The samples were analyzed in triplicate.

A. baumannii KCTC 2508 = assay type: cell-based, Acinetobacter baumannii
Protocol: as §1

S. aureus ATCC 25923 [2] = assay type: cell-based, Staphylococcus aureus; conditions: ATCC 25923, 18 h
Protocol: as §1

B. subtilis KCTC 2217 = assay type: cell-based, Bacillus subtilis
Protocol: as §1

S. aureus ATCC 25923 [3] = assay type: cell-based, Staphylococcus aureus; conditions: ATCC 25923, 18 h; remark: listed apart in the source
Protocol: as §1
(§2) The effects of various cations on the antimicrobial activity of P5 and the truncated peptides were determined against P. aeruginosa ATCC 27853 and S. aureus ATCC 25923. Bacteria were treated with the peptides in the presence of NaCl (50, 100, and 150 mM), MgCl2 (0.5, 1, and 2 mM), and FeCl3 (1, 4, and 8 µM). The MIC values were the same as those described above.

[4] = test system: red blood cells (RBCs) from mice; assay: Hemolytic activity; assay type: cell-based; conditions: mouse RBCs 8% in PBS, peptide 100 µM, 1 h at 37 °C, absorbance 414 nm, 0.1% Triton X-100 positive control
Protocol: To determine the hemolytic activities of the peptides against red blood cells (RBCs) from mice, RBCs were centrifuged at 2000×g for 5 min and washed with 1 mL of phosphate-buffered saline solution (PBS) three times. The supernatant was removed and the RBCs were diluted to 8% in PBS. After serial dilution, 60 µL of the RBCs and peptides were added to a 96-well plate and incubated at 37 °C for 1 h. The plate was centrifuged at 1500×g for 10 min, 100 µL of the supernatant was transferred to a new plate, and the absorbance was measured at 414 nm (Versa-Max enzyme-linked immunosorbent assay (ELISA) reader). Additionally, 0.1% Triton X-100 and PBS were used as positive and negative controls, respectively. The hemolytic activity percentage (hemolysis rate) was calculated using the following equation (Han et al. [2016]): Hemolysis percentage%=peptide solution-negative control/positive control-PBS×100.

P. aeruginosa ATCC 27853 [5] = assay type: cell-based, Pseudomonas aeruginosa; conditions: ATCC 27853, 18 h; remark: listed apart in the source
Protocol: as §1, §2

HaCaT cells = assay: Cytotoxicity, MTT assay; assay type: cell-based, human; conditions: 24 h, 1.56 µM
Protocol: Human skin epithelial cells (HaCaT cells) were cultured in Dulbecco’s modified Eagle’s medium (DMEM) with 10% fetal bovine serum (FBS) at 37 °C in 5% CO2. Cytotoxicity was determined using the MTT assay (Deng et al. [2015]). HaCaT cells were plated at 2 × 10^4 cells/well in 96-well plates. After overnight incubation, the peptides were added at various concentrations for 24 h, and then 5 mg/mL of MTT was added to each well. After 1 h, the supernatant was removed and 100 μL of DMSO was added to each well to dissolve the formazan crystals. Cytotoxicity was measured at an absorbance of 570 nm using a microplate reader (VersaMax). The cell viability percentage (cell viability rate) was calculated using the following equation (Kim et al. [2018]): Cell viability percentage%=peptide treated sample[…]×100.

Row | Compound | MIC (P. aeruginosa ATCC 27853 [1]) [µM] | MIC (A. baumannii KCTC 2508; KCTC 2508, 18 h) [µM] | MIC (S. aureus ATCC 25923 [2]) [µM] | MIC (B. subtilis KCTC 2217; KCTC 2217, 18 h) [µM] | MIC (S. aureus ATCC 25923 [3]) [µM] | hemolysis [4] | MIC (P. aeruginosa ATCC 27853 [5]) [µM] | MIC (A. baumannii KCTC 2508; A. baumannii KCTC 2508, MHB, 2 × 10^5 CFU/mL, 18 h at 37 °C, absorbance 600 nm, triplicate) [µM] | MIC (B. subtilis KCTC 2217; B. subtilis KCTC 2217, MHB, 2 × 10^5 CFU/mL, 18 h at 37 °C, absorbance 600 nm, triplicate) [µM] | cytotoxicity (HaCaT cells)
1 | CC(C)C[C@H](NC(=O)[C@H](CCCCN)NC(=O)[C@H](CCCCN)NC(=O)[C@H](CC(C)C)NC(=O)[C@H](CC(C)C)NC(=O)[C@H](CCCCN)NC(=O)[C@H](CCCCN)NC(=O)[C@H](CC(C)C)NC(=O)[C@H](CC(C)C)NC(=O)[C@@H]1CCCN1C(=O)[C@H](CCCCN)NC(=O)[C@H](CCCCN)NC(=O)[C@H](CC(C)C)NC(=O)[C@H](CC(C)C)NC(=O)[C@H](CCCCN)NC(=O)[C@@H](N)CCCCN)C(N)=O [P5-NT1] (H-KKLLKKPLLKKLLKKL-NH2) | 1.56 (≈ 3.01 µg/mL) | 3.13 (≈ 6.05 µg/mL) | 1.56 (≈ 3.01 µg/mL) | 1.56 (≈ 3.01 µg/mL) | 0.78 (≈ 1.51 µg/mL) | – | – | – | – | –
2 | CC(C)C[C@H](NC(=O)[C@H](CCCCN)NC(=O)[C@H](CCCCN)NC(=O)[C@H](CC(C)C)NC(=O)[C@H](CC(C)C)NC(=O)[C@H](CCCCN)NC(=O)[C@H](CCCCN)NC(=O)[C@H](CC(C)C)NC(=O)[C@H](CC(C)C)NC(=O)[C@@H]1CCCN1C(=O)[C@H](CCCCN)NC(=O)[C@@H](N)CCCCN)C(N)=O [P5-NT3] (H-KKPLLKKLLKKL-NH2) | 6.25 (≈ 9.06 µg/mL) | 25 (≈ 36.2 µg/mL) | 1.56 (≈ 2.26 µg/mL) | 1.56 (≈ 2.26 µg/mL) | 0.78 (≈ 1.13 µg/mL) | – | – | – | – | –
3 | CC(C)C[C@H](NC(=O)[C@H](CCCCN)NC(=O)[C@H](CCCCN)NC(=O)[C@H](CC(C)C)NC(=O)[C@H](CC(C)C)NC(=O)[C@H](CCCCN)NC(=O)[C@H](CCCCN)NC(=O)[C@H](CC(C)C)NC(=O)[C@H](CC(C)C)NC(=O)[C@@H]1CCCN1C(=O)[C@H](CCCCN)NC(=O)[C@H](CCCCN)NC(=O)[C@H](CC(C)C)NC(=O)[C@H](CC(C)C)NC(=O)[C@H](CCCCN)NC(=O)[C@H](CCCCN)NC(=O)[C@H](Cc1c[nH]c2ccccc12)NC(=O)[C@@H](N)CCCCN)C(N)=O [P5] (H-KWKKLLKKPLLKKLLKKL-NH2) | 3.13 (≈ 7.03 µg/mL) | 1.56 (≈ 3.5 µg/mL) | 1.56 (≈ 3.5 µg/mL) | 1.56 (≈ 3.5 µg/mL) | 1.56 (≈ 3.5 µg/mL) | approximately 14% | – | – | – | –
4 | CC(C)C[C@H](NC(=O)[C@H](CC(C)C)NC(=O)[C@@H]1CCCN1C(=O)[C@H](CCCCN)NC(=O)[C@H](CCCCN)NC(=O)[C@H](CC(C)C)NC(=O)[C@H](CC(C)C)NC(=O)[C@H](CCCCN)NC(=O)[C@H](CCCCN)NC(=O)[C@H](Cc1c[nH]c2ccccc12)NC(=O)[C@@H](N)CCCCN)C(=O)N[C@@H](CCCCN)C(N)=O [P5-CT3] (H-KWKKLLKKPLLK-NH2) | > 25 | > 25 | 3.13 (≈ 4.76 µg/mL) | 6.25 (≈ 9.51 µg/mL) | – | – | > 25 | – | – | –
5 | CC(C)C[C@H](NC(=O)[C@H](CCCCN)NC(=O)[C@H](CCCCN)NC(=O)[C@H](CC(C)C)NC(=O)[C@H](CC(C)C)NC(=O)[C@@H]1CCCN1C(=O)[C@H](CCCCN)NC(=O)[C@H](CCCCN)NC(=O)[C@H](CC(C)C)NC(=O)[C@H](CC(C)C)NC(=O)[C@H](CCCCN)NC(=O)[C@H](CCCCN)NC(=O)[C@H](Cc1c[nH]c2ccccc12)NC(=O)[C@@H](N)CCCCN)C(N)=O [P5-CT2] (H-KWKKLLKKPLLKKL-NH2) | 6.25 (≈ 11 µg/mL) | 12.5 (≈ 22 µg/mL) | 1.56 (≈ 2.75 µg/mL) | 3.13 (≈ 5.52 µg/mL) | – | – | – | – | – | –
6 | CC(C)C[C@H](NC(=O)[C@H](CCCCN)NC(=O)[C@H](CCCCN)NC(=O)[C@H](CC(C)C)NC(=O)[C@H](CC(C)C)NC(=O)[C@H](CCCCN)NC(=O)[C@H](CCCCN)NC(=O)[C@H](CC(C)C)NC(=O)[C@H](CC(C)C)NC(=O)[C@@H]1CCCN1C(=O)[C@H](CCCCN)NC(=O)[C@H](CCCCN)NC(=O)[C@H](CC(C)C)NC(=O)[C@@H](N)CC(C)C)C(N)=O [P5-NT2] (H-LLKKPLLKKLLKKL-NH2) | 3.13 (≈ 5.24 µg/mL) | 12.5 (≈ 20.9 µg/mL) | 1.56 (≈ 2.61 µg/mL) | 1.56 (≈ 2.61 µg/mL) | – | – | – | – | – | –
7 | CC[C@H](C)[C@H](NC(=O)CN)C(=O)NCC(=O)N[C@@H](C)C(=O)N[C@H](C(=O)N[C@@H](CC(C)C)C(=O)N[C@@H](CCCCN)C(=O)N[C@H](C(=O)N[C@@H](CC(C)C)C(=O)N[C@H](C(=O)N[C@H](C(=O)NCC(=O)N[C@@H](CC(C)C)C(=O)N1CCC[C@H]1C(=O)N[C@@H](C)C(=O)N[C@@H](CC(C)C)C(=O)N[C@H](C(=O)N[C@@H](CO)C(=O)N[C@@H](Cc1c[nH]c2ccccc12)C(=O)N[C@H](C(=O)N[C@@H](CCCCN)C(=O)N[C@@H](CCCNC(=N)N)C(=O)N[C@@H](CCCCN)C(=O)N[C@@H](CCCNC(=N)N)C(=O)N[C@@H](CCC(N)=O)C(=O)N[C@@H](CCC(N)=O)C(N)=O)[C@@H](C)CC)[C@@H](C)CC)[C@@H](C)O)[C@@H](C)O)C(C)C)C(C)C [Melittin, reference compound] | – | – | – | – | – | – | – | 1.56 (≈ 4.44 µg/mL) | 0.78 (≈ 2.22 µg/mL) | highly toxic
8 | CC(C)C[C@H](NC(=O)[C@H](CC(C)C)NC(=O)[C@H](CCCCN)NC(=O)[C@H](CCCCN)NC(=O)[C@H](CC(C)C)NC(=O)[C@H](CC(C)C)NC(=O)[C@@H]1CCCN1C(=O)[C@H](CCCCN)NC(=O)[C@H](CCCCN)NC(=O)[C@H](CC(C)C)NC(=O)[C@H](CC(C)C)NC(=O)[C@H](CCCCN)NC(=O)[C@H](CCCCN)NC(=O)[C@H](Cc1c[nH]c2ccccc12)NC(=O)[C@@H](N)CCCCN)C(=O)N[C@@H](CCCCN)C(N)=O [P5-CT1] (H-KWKKLLKKPLLKKLLK-NH2) | 1.56 (≈ 3.13 µg/mL) | 3.13 (≈ 6.27 µg/mL) | 1.56 (≈ 3.13 µg/mL) | 1.56 (≈ 3.13 µg/mL) | 0.78 (≈ 1.56 µg/mL) | – | – | – | – | –
